“And” between values parts separate entries of the source, which are not always exact repeats. Equal entries are not always repeated.
Columns and labels:
[1] = female, Balb/c, mouse, in vivo, ip
[2] = test system: Ectromelia Virus Moscow strain (ECTV-MOS strain); set-up: species or system Balb/c mice; conditions: mouse, in vivo, ip
[3] = test system: murine hepatitis coronavirus A59 strain (MHV-A59); assay type: cell-based
[4] = test system: Enterovirus 71 Hn2 strain (EV71-Hn2); assay type: cell-based

In the case of Nc1ccn(C[C@@H](CO)OCP(=O)(O)O)c(=O)n1 [Cidofovir], the “Case-Fatality Rate (%)” value [1] is reported as 0%, the “Death Number” value [1] is reported as 0 and the “Survival Number” value [1] is reported as 15. For the same molecule, the “Survival Rate (%)” value [1] was 100%, the “Case-Fatality Rate (%)” value [2] was 6.67% and 13.33% and the “Death Number” value [2] was 1 and 2. The “Survival Number” value [2] was 14 and 13, the “Survival Rate (%)” value [2] was 86.67% and 93.33% and the “effect on the titers of coronavirus (MHV)” value [3] was “no effects”. The “effect on the titers of enterovirus (EV71)” value [4] was “no effects”.
